The first assay relates to Alternaria brassicae. Put plainly: In vivo test on Alternaria brassicae (radish plants, preventive spray). Particulars: dose of 110 ppm, radish plants (Pernot variety), contaminated 24 hours after treatment, grading 6 to 7 days after contamination vs control plants, read-out: protection (good (at least 50%) to total). The method, then:
The active ingredient tested is prepared by potter homogenisation in a concentrated suspension type formulation at 100 g/l. This suspension is then diluted with water to obtain the desired active material concentration.
Radish plants (Pernot variety) in starter cups, sown on a 50/50 peat soil-pozzolana substrate and grown at 18-20° C., are treated at the cotyledon stage by spraying with the aqueous suspension described above.
Plants, used as controls, are treated with an aqueous solution not containing the active material.
After 24 hours, the plants are contaminated by spraying them with an aqueous suspension of Alternaria brassicae spores (40,000 spores per cm^3). The spores are collected from a 12-13-day-old culture.
The contaminated radish plants are incubated for 6-7 days at about 18° C., under a humid atmosphere.
Grading is carried out 6 to 7 days after the contamination, in comparison with the control plants.
As for `Cc1ccsc1CCNC(=O)c1ccccc1C(F)F` [Compound A-1], the pest or weed control at 110 ppm was at least 50%.

Turning to `Cc1nc(CCNC(=O)c2ccccc2C(F)(F)F)sc1C` [Compound B-2], the pest or weed control at 110 ppm was at least 50%.

On to `COc1cc(C(F)(F)F)nn1CCNC(=O)c1ccccc1Br` [Compound E-1], for which the pest or weed control at 110 ppm was at least 50%.

The same assay, now with this note: dose of 330 ppm, radish plants (Pernot variety), contaminated 24 hours after treatment, grading 6 to 7 days after contamination vs control plants, read-out: protection (good (at least 50%) to total).
On to `O=C(NCCc1sccc1Cl)c1ccccc1C(F)(F)F` [Compound A-5], for which the pest or weed control at 330 ppm is at least 50%.

Take `O=C(NCCc1sccc1Cl)c1ccccc1Br` [Compound A-7]: the pest or weed control at 330 ppm was at least 50%.

On to `Cc1csc(CCNC(=O)c2ccccc2C(F)(F)F)n1` [Compound B-1], for which the pest or weed control at 330 ppm was at least 50%.

As for `Cc1nc(C)c(CCNC(=O)c2ccccc2Br)s1` [Compound C-2], the pest or weed control at 330 ppm is at least 50%.

For the compound `Cn1cc(CCNC(=O)c2ccccc2C(F)(F)F)c(C(F)(F)F)n1` [Compound D-1], the pest or weed control at 330 ppm was at least 50%.

As for `Cn1cc(CCNC(=O)c2ccccc2Cl)c(C(F)(F)F)n1` [Compound D-4], the pest or weed control at 330 ppm was at least 50%.

Consider `Cc1ccccc1C(=O)NCCc1cn(C)nc1C(F)(F)F` [Compound D-5], for which the pest or weed control at 330 ppm is at least 50%.

The record behind these values is patent US7888289B2, “Heterocyclylethylbenzamide derivatives” (Bayer Cropscience AG, priority 2005, dated 2011).
